Where two headings read alike, the source gives them in different places.
Assays:
[1] = target: T1, Sigma receptor (Cavia porcellus, UniProt Q60492); assay: Sigma Receptor Binding Assay; assay type: guinea pig (male Hartley), brain membranes
T1 construct: Brain membranes were prepared by the method of Tam; from tissue; host or cells: guinea pig whole brain membranes

[2] = target: T2, Dopamine (D-2) receptor (Cavia porcellus, UniProt H0VE83); assay: Dopamine Receptor Binding; assay type: guinea pig, striatum membranes
T2 construct: Membranes were prepared from guinea pig striatum; from tissue; host or cells: guinea pig striatum membranes

[3] = 1 nM (+)-[3H]SKF 10,047, guinea pig brain membranes, pH 7.4, 45 min room temperature, read-out: Receptor Binding Affinity Sigma (Ki class)
[4] = 0.15 nM [3H]spiperone, guinea pig striatum, pH 7.7, 15 min 37° C., read-out: Receptor Binding Affinity Dopamine (D-2) (Ki class)

T2 sequence (H0VE83 1-446): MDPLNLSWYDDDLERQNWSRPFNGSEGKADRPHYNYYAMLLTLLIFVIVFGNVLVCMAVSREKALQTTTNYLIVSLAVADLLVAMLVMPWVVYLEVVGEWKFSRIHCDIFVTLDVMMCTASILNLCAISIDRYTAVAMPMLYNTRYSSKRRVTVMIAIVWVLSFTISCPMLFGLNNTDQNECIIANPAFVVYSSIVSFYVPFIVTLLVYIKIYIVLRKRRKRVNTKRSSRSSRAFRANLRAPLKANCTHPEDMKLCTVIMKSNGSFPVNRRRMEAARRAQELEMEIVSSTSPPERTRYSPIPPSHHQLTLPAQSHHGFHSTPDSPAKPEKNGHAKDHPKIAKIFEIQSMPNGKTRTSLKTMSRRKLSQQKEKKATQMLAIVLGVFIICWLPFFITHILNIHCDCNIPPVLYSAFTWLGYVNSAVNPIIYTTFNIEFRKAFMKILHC
T1 sequence (Q60492 whole entry): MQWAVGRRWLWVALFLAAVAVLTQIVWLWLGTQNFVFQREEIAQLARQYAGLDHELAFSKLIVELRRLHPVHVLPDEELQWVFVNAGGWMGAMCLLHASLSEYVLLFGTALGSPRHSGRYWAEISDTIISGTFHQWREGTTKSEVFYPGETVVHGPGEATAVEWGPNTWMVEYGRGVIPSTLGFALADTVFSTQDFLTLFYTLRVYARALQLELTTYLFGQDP

Ki [1, 3] [nM] | Ki [2, 4] [nM] | SMILES | Ki [1] [nM] | Ki [2] [nM]
1 to 30 | > 500 | O=C1C2C3CCC(O3)C2C(=O)N1CC1CCN(CCc2ccccc2)CC1 (centres unmarked) [Example 58] | – | –
31 to 100 | 101 to 500 | CC12CCCCC1(C)C(=O)N(CC1CCN(CCc3ccccc3)CC1)C2=O (centres unmarked) [Example 65] | – | –
101 to 500 | > 500 | CC12CC=CCC1C(=O)N(CC1CCN(CCc3ccccc3)CC1)C2=O (centres unmarked) [Example 67] | – | –
1 to 30 | > 500 | O=C1C2C3C=CC(CCC3)C2C(=O)N1CC1CCN(CCc2ccccc2)CC1 (centres unmarked) [Example 62] | – | –
1 to 30 | > 500 | O=C1C2CC=CCC2C(=O)N1CC1CCN(CCc2ccccc2)CC1 (centres unmarked) [Example 52] | – | –
1 to 30 | 101 to 500 | O=C1C2C3CCC(C4CCC43)C2C(=O)N1CC1CCN(CCc2ccccc2)CC1 (centres unmarked) [Example 72] | – | –
31 to 100 | > 500 | O=C1C2C3C=CC(C4CCC34)C2C(=O)N1CC1CCN(CCc2ccccc2)CC1 (centres unmarked) [Example 59] | – | –
31 to 100 | > 500 | O=C1c2ccccc2C(=O)N1CCC1CCCCN1Cc1ccccc1 (centres unmarked) [Example 50] | – | –
1 to 30 | > 500 | O=C1[C@H]2CC=CC[C@H]2C(=O)N1CC1=CCN(CCc2ccccc2)CC1 [Example 117] | – | –
31 to 100 | > 500 | O=C1C2C3CCC(C3)C2CN1CC1CCN(CCc2ccccc2)CC1 (centres unmarked) [Example 54] | – | –
31 to 100 | > 500 | O=C1C2C3C=CC(C3)C2C(=O)N1CC1CCN(CCc2ccccc2)CC1 (centres unmarked) [Example 55] | – | –
1 to 30 | > 500 | O=C1[C@H]2CCCC[C@H]2C(=O)N1CC1=CCN(CCc2ccccc2)CC1 [Example 119] | – | –
1 to 30 | > 500 | CC1(CN2C(=O)[C@H]3CCCC[C@H]3C2=O)CCN(CCc2ccccc2)CC1 [Example 132, 2-[1-(2-Phenylethyl)-4-(4-methyl)piperidinylmethyl]-cis-3a, 4,5,6,7,7a-hexahydro-1H-isoindole-1,3(2H)-dione] | – | –
1 to 30 | > 500 | O=C1[C@H]2CCCC[C@H]2C(=O)N1CCC1=CCN(CCc2ccccc2)CC1 [Example 120] | – | –
31 to 100 | > 500 | O=C1C2C3C=CC(C4C=CC43)C2C(=O)N1CC1(O)CCN(CCc2ccccc2)CC1 (centres unmarked) [Example 76] | – | –
31 to 100 | > 500 | O=C1c2ccccc2C(=O)N1CCCC1=CCN(CCc2ccccc2)CC1 [Example 116] | – | –
101 to 500 | > 500 | O=C1[C@H]2CCCC[C@H]2C(=O)N1CC1(O)CCN(CCc2ccccc2)CC1 [Example 74] | – | –
1 to 30 | > 500 | CC1(CN2C(=O)[C@H]3CCCC[C@H]3C2=O)CCN(CCC2CCCCC2)CC1 [Example 133] | – | –
31 to 100 | > 500 | O=C1C2C3CCCC(CC3)C2C(O)N1CC1CCN(CCc2ccccc2)CC1 (centres unmarked) [Example 73] | – | –
1 to 30 | > 500 | O=C1[C@H]2CC=CC[C@H]2C(=O)N1CCCC1=CCN(CCc2ccccc2)CC1 [Example 118] | – | –
1 to 30 | > 500 | O=C1C2C3C=CC(C4CC34)C2C(=O)N1CC1CCN(CCc2ccccc2)CC1 (centres unmarked) [Example 69] | – | –
1 to 30 | > 500 | O=C1C2=C(CN1CC1CCN(CCc3ccccc3)CC1)C1CCCC2CC1 (centres unmarked) [Example 71] | – | –
31 to 100 | > 500 | CC12CCCCC1C(=O)N(CC1CCN(CCc3ccccc3)CC1)C2=O (centres unmarked) [Example 64] | – | –
1 to 30 | > 500 | O=C1c2ccccc2C(=O)N1CCCC1CCN(CCc2ccccc2)CC1 [Example 44] | – | –
1 to 30 | > 500 | O=C1c2ccccc2C(=O)N1CC1CCCN(CCc2ccccc2)C1 (centres unmarked) [Example 48] | – | –
101 to 500 | 101 to 500 | CC1C2=C(CCCC2)C(=O)N1CC1CCN(CCc2ccccc2)CC1 (centres unmarked) [Example 70, 2,3,4,5,6,7, -hexahydro-2-[[1-(2-phenylethyl)-4-piperidinyl]methyl]-3-methyl-1H-isoindol-1-one] | – | –
1 to 30 | > 500 | O=C1C2C3C=CC(CCC3)C2C(=O)N1CC1(O)CCN(CCc2ccccc2)CC1 (centres unmarked) [Example 75] | – | –
31 to 100 | > 500 | CC12CC=CCC1(C)C(=O)N(CC1CCN(CCc3ccccc3)CC1)C2=O (centres unmarked) [Example 66] | – | –
1 to 30 | > 500 | O=C1c2ccccc2C(=O)N1CCCC1CCCN(CCc2ccccc2)C1 (centres unmarked) [Example 49] | – | –
31 to 100 | – | O=C1C2C3C=CC(C4CCC34)C2C(=O)N1CC1CCN(CCc2ccccc2)CC1 (centres unmarked) [Example 113] | – | –

Further lines, the compound ahead of its results:

SMILES | Ki [1, 3] [nM] | Ki [2, 4] [nM] | Ki [1] [nM] | Ki [2] [nM]
O=C1c2ccccc2C(=O)N1CCC1CCN(Cc2ccc(F)cc2)CC1 [Example 41] | 1 to 30 | > 500 | – | –
O=C1[C@H]2CCCC[C@H]2C(=O)N1CC1(c2cccc(Cl)c2)CCN(CCc2ccccc2)CC1 [Example 123] | – | > 500 | 1 to 30 | –
O=C1[C@H]2CCCC[C@H]2C(=O)N1CCC1CCN(CCc2ccccc2)CC1 [Example 24] | 1 to 30 | > 500 | – | –
O=C1c2ccccc2C(=O)N1CCCC1CCCN(Cc2ccccc2)C1 (centres unmarked) [Example 4, 2-[3-[1-(phenylmethyl)-3-piperidinyl]propyl]-1H-isoindole-1,3(2H)-dione] | 1 to 30 | > 500 | – | –
O=C1[C@H]2CCCC[C@H]2C(=O)N1C1CCN(CCc2ccccc2)CC1 [Example 13] | 31 to 100 | > 500 | – | –
O=C1c2ccccc2C(=O)N1CCC1CCN(Cc2cccc(F)c2)CC1 [Example 40] | 1 to 30 | > 500 | – | –
O=C1[C@@H]2CCCC[C@H]2C(=O)N1CC1CCN(CCc2ccccc2)CC1 (relative stereo) [Example 22] | 31 to 100 | > 500 | – | –
O=C1c2ccccc2C(=O)N1CC1(c2cccc(Cl)c2)CCN(CCc2ccccc2)CC1 [Example 130] | – | > 500 | 1 to 30 | –
O=C1c2ccccc2C(=O)N1CC1CCN(CCc2ccccc2)CC1 [Example 2, 2-[1-(2-Phenylethyl)-4-piperidinylmethyl]-1H-isoindole-1,3(2H)-dione] | 31 to 100 | > 500 | – | –
O=C1[C@H]2CCCC[C@H]2C(=O)N1CCCC1CCN(CCc2ccccc2)CC1 [Example 33] | 1 to 30 | > 500 | – | –
O=C1[C@H]2CCCC[C@H]2C(=O)N1CC1(c2ccsc2)CCN(CCc2ccccc2)CC1 [Example 128] | – | > 500 | 1 to 30 | –
O=C1[C@H]2CCCC[C@H]2C(=O)N1CC1(c2ccccc2)CCN(CCc2ccccc2)CC1 [Example 122, 2-[1-(2-Phenylethyl)-4-phenyl-4-piperidine-methyl]-cis-3a; 4,5,6,7,7a-hexalydro-1H-isoindole-1,3(2H)-dione] | – | > 500 | 1 to 30 | –
O=C1c2ccccc2C(=O)N1CCC1CCN(CC2CC2)CC1 [Example 42] | 1 to 30 | > 500 | – | –
O=C1[C@H]2CCCC[C@H]2C(=O)N1CC1CCN(CC2CC2)CC1 [Example 21] | 101 to 500 | > 500 | – | –
O=C1[C@H]2CCCC[C@H]2C(=O)N1CC1CCN(CCc2ccc([N+](=O)[O-])cc2)CC1 [Example 27] | 1 to 30 | > 500 | – | –
O=C1[C@H]2CCCC[C@H]2C(=O)N1CC1CCN(CCc2c[nH]c3ccccc23)CC1 [Example 32] | 101 to 500 | – | – | > 500
O=C1[C@H]2CCCC[C@H]2C(=O)N1C1CCN(Cc2ccccc2)CC1 [Example 12] | 1 to 30 | > 500 | – | –

SMILES | Ki [1, 3] [nM] | Ki [2, 4] [nM] | Ki [1] [nM] | Ki [2] [nM]
O=C1c2ccccc2C(=O)N1CCC1CCN(Cc2ccccc2)CC1 [Example 38] | 1 to 30 | > 500 | – | –
CN(C)c1ccc(CCN2CCC(CN3C(=O)[C@H]4CCCC[C@H]4C3=O)CC2)cc1 [Example 28] | 1 to 30 | > 500 | – | –
O=C1[C@H]2CCCC[C@H]2C(=O)N1CC1CCN(Cc2ccccc2)CC1 [Example 14] | 1 to 30 | > 500 | – | –
O=C1C2C3C=CC(C4CCC34)C2C(=O)N1CC1CCN(CCc2c[nH]c3ccccc23)CC1 (centres unmarked) [Example 10] | 1 to 30 | 31 to 100 | – | –
O=C1[C@H]2CCCC[C@H]2C(=O)N1CC1CCN(CCc2ccc(F)cc2)CC1 [Example 29] | 31 to 100 | > 500 | – | –
O=C1[C@H]2CCCC[C@H]2C(=O)N1CC1CCN(CCc2ccc(O)cc2)CC1 [Example 19] | 101 to 500 | 101 to 500 | – | –
O=C1[C@H]2CCCC[C@H]2C(=O)N1CC1CCN(CCc2ccc(C(F)(F)F)cc2)CC1 [Example 31] | 101 to 500 | > 500 | – | –
O=C1[C@H]2CCCC[C@H]2C(=O)N1CC1(c2ccc(Cl)cc2)CCN(CCc2ccccc2)CC1 [Example 124] | – | > 500 | 1 to 30 | –
O=C1[C@H]2CCCC[C@H]2C(=O)N1CC1CCN(CCc2ccc(Br)cc2)CC1 [Example 30] | 1 to 30 | 101 to 500 | – | –
CC1(O)C2CCCCC2C(=O)N1CC1CCN(CCc2ccccc2)CC1 (stereo not drawn) [Example 8, cis-Octahydro-3-hydroxy-3-methyl-2-[[1-(2-phenylethyl)4-piperidinyl]methyl]-1H-isoindol-1-one] | 101 to 500 | > 500 | – | –
O=C1c2ccccc2C(=O)N1CCCC1CCN(Cc2ccccc2)CC1 [Example 43] | 1 to 30 | > 500 | – | –
O=C1c2ccccc2C(=O)N1CC1CCN(Cc2cccc(F)c2)CC1 [Example 35] | 31 to 100 | > 500 | – | –
O=C1C2CCCCC2C(O)N1CC1CCN(CCc2ccccc2)CC1 (stereo not drawn) [Example 5, cis-Octahydro-3-hydroxy-2-[[1-(2-phenylethyl)-4-piperidinyl]methyl]-1H-isoindol-1-one] | 101 to 500 | > 500 | – | –
O=C1[C@H]2CCCC[C@H]2C(=O)N1CC1CCN(CCc2ccc(Cl)cc2)CC1 [Example 26] | 1 to 30 | > 500 | – | –
O=C1c2ccccc2C(=O)N1CC1CCN(CC2CC2)CC1 [Example 37] | 101 to 500 | > 500 | – | –
O=C1[C@H]2CCCC[C@H]2C(=O)N1CC1CCN(CCCc2ccccc2)CC1 [Example 16] | 31 to 100 | > 500 | – | –

— US5480892A, “(N-phthalimidoalkyl)piperidines” (The Du Pont Merck Pharmaceutical Company, priority 1994, dated 1996)
